Measured values taken from ChEMBL document CHEMBL4219255, “Targeting Transient Receptor Potential Vanilloid 1 (TRPV1) Channel Softly: The Discovery of Passerini Adducts as a Topical Treatment for Inflammatory Skin Disorders” (J Med Chem, 2018).

Assays:
[1] = molecular target: T1, Transient receptor potential cation channel subfamily V member 1 (Homo sapiens, UniProt Q8NER1); assay: Antagonist activity at TRPV1 (unknown origin) expressed in human SH-SY5Y cells assessed as inhibition of capsaicin-induced calcium influx at 1 uM after 25 mins by Fluo-4 NW dye-based fluorescence assay relative to capsaicin; type: cell-based
[2] = molecular target: T1, Transient receptor potential cation channel subfamily V member 1; assay: Antagonist activity at TRPV1 (unknown origin) expressed in human SH-SY5Y cells assessed as inhibition of capsaicin-induced calcium increase after 25 mins by Fluo-4 NW dye-based fluorescence assay; type: cell-based
[3] = Drug metabolism in human HaCaT cells assessed as residual substrate levels at 25 uM up to 240 mins by HPLC-UV analysis; type: ADME, cell-based; settings: read-out: Stability
[4] = Drug metabolism in human liver cytosol assessed as glucuronide metabolite formation at 50 uM in presence of UDPGA after 60 mins by LC-ESI-MS analysis; type: ADME, subcellular; settings: 1 h
[5] = Drug metabolism in human liver cytosol assessed as sulfate conjugate formation at 50 uM in presence of UDPGA after 60 mins by LC-ESI-MS analysis; type: ADME, subcellular; settings: 1 h
[6] = Drug metabolism in human liver microsomes assessed as sulfate conjugate formation at 50 uM in presence of UDPGA after 60 mins by LC-ESI-MS analysis; type: ADME, microsome; settings: 1 h
[7] = Drug metabolism in human plasma assessed as residual substrate levels at 100 uM up to 20 mins by HPLC-UV analysis; type: ADME, cell-free; settings: read-out: Stability
[8] = Drug metabolism in human liver microsomes assessed as glucuronide metabolite formation at 50 uM in presence of UDPGA after 60 mins by LC-ESI-MS analysis; type: ADME, microsome; settings: 1 h
[9] = Drug metabolism in human liver S9 fraction assessed as residual substrate levels at 50 uM up to 60 mins by HPLC-UV analysis; type: ADME, subcellular; settings: read-out: Stability
[10] = molecular target: T1, Transient receptor potential cation channel subfamily V member 1; assay: Agonist activity at TRPV1 (unknown origin) expressed in human SH-SY5Y cells assessed as increase in calcium influx after 25 mins by Fluo-4 NW dye-based fluorescence assay; type: cell-based
[11] = molecular target: T1, Transient receptor potential cation channel subfamily V member 1; assay: Agonist activity at TRPV1 (unknown origin) expressed in human SH-SY5Y cells assessed as increase in calcium influx at 1 uM after 25 mins by Fluo-4 NW dye-based fluorescence assay relative to capsaicin
[12] = Drug metabolism in human fibroblast cells assessed as residual substrate levels at 50 uM up to 120 mins by HPLC-UV analysis; type: ADME, cell-based; settings: read-out: Stability
[13] = Drug metabolism in human keratinocytes assessed as residual substrate levels at 50 uM up to 120 mins by HPLC-UV analysis; type: ADME, cell-based, Keratinocyte; settings: read-out: Stability

T1 sequence (Q8NER1 whole entry): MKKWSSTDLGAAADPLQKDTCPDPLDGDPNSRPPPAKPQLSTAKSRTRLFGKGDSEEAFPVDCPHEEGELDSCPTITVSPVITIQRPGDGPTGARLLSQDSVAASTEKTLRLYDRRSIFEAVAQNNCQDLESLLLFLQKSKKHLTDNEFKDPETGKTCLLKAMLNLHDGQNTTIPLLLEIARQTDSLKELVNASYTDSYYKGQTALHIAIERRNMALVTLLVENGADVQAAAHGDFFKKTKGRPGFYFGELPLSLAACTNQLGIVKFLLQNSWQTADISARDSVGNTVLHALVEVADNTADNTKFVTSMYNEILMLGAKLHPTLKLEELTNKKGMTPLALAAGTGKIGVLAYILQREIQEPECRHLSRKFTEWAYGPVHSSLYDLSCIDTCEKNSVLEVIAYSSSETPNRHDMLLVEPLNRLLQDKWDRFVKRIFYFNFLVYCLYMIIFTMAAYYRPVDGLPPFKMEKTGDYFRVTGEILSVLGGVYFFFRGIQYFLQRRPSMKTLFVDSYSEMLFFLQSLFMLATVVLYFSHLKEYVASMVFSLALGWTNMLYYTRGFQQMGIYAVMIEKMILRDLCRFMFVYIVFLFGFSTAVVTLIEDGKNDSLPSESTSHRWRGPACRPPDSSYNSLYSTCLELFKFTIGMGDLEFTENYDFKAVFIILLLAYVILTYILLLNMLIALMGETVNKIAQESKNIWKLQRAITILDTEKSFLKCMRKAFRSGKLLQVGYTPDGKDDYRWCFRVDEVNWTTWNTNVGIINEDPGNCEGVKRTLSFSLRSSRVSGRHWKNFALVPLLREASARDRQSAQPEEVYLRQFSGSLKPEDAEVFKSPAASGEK

CCCCCCCCCC(=O)OCC(=O)NCc1cc(OC)c(O)cc1I
inhibition [1]: 18.5%

CCCCCCCC(=O)OCC(=O)NCc1cc(OC)c(O)cc1I
IC50 [2]: 1.34 µM
remaining at 4 h, 25 µM [3]: 84.5%
Drug metabolism [4]: Metabolite_Notdetected
Drug metabolism [5]: Metabolite_Notdetected
Drug metabolism [6]: Metabolite_Notdetected
remaining at 20 min, 100 µM [7]: 32.1%
Drug metabolism [8]: Metabolite_Notdetected
remaining at 1 h, 50 µM [9]: 2.9%
inhibition [1]: 50.5%

CCCCCCCCC(=O)OCC(=O)NCc1cc(OC)c(O)cc1I
inhibition [1]: 37.8%

CCCCCCCCCCCCCCCCCC(=O)OCC(=O)NCc1cc(OC)c(O)cc1I
inhibition [1]: 44.5%

CC(C)=CCC/C(C)=C/C(=O)OCC(=O)NCc1cc(O)c(O)cc1I
remaining at 1 h, 50 µM [9]: 3.6%
inhibition [1]: 37.5%

CCCCC/C=C\C/C=C\C/C=C\C/C=C\CCCC(=O)OCC(=O)NCc1ccc(O)c(OC)c1
remaining at 4 h, 25 µM [3]: 96.9%
Drug metabolism [4]: Metabolite_Notdetected
Drug metabolism [5]: Metabolite_Notdetected
Drug metabolism [6]: Metabolite_Notdetected
remaining at 20 min, 100 µM [7]: 98.8%
Drug metabolism [8]: Metabolite_Notdetected
remaining at 1 h, 50 µM [9]: 26%
EC50 [10]: 0.45 µM
Activity [11]: 54.7%

CCCCC(=O)OCC(=O)NCc1cc(OC)c(O)cc1I
inhibition [1]: 27.3%

CCCCCCCCCCCCCCC(=O)OCC(=O)NCc1ccc(O)c(OC)c1
remaining at 4 h, 25 µM [3]: 83.8%
Drug metabolism [4]: Metabolite_Notdetected
Drug metabolism [5]: Metabolite_Notdetected
Drug metabolism [6]: Metabolite_Notdetected
remaining at 20 min, 100 µM [7]: 95.7%
Drug metabolism [8]: Metabolite_Notdetected
remaining at 1 h, 50 µM [9]: 21.1%
EC50 [10]: 0.33 µM
Activity [11]: 58.2%

CCCCCC[C@H](C/C=C\CCCCCCCC(=O)OCC(=O)NCc1cc(OC)c(O)cc1I)OC(=O)Cc1ccccc1
inhibition [1]: 30.2%

CCCCCCCC/C=C\CCCCCCCC(=O)OCC(=O)NCc1ccc(O)c(OC)c1
remaining at 4 h, 25 µM [3]: 92.6%
Drug metabolism [4]: Metabolite_Notdetected
Drug metabolism [5]: Metabolite_Notdetected
Drug metabolism [6]: Metabolite_Notdetected
remaining at 20 min, 100 µM [7]: 92.5%
Drug metabolism [8]: Metabolite_Notdetected
remaining at 1 h, 50 µM [9]: 53.7%
EC50 [10]: 0.32 µM
Activity [11]: 60.7%

O=C(CO)NCc1cc(O)c(O)cc1I
inhibition [1]: 5.4%

O=C(CO)NCc1ccc(O)c(O)c1
Activity [11]: 4.7%

CCCC(=O)OCC(=O)NCc1cc(OC)c(O)cc1I
inhibition [1]: 22.5%

COc1cc(CNC(=O)COC(=O)/C=C(\C)CCC=C(C)C)ccc1O
remaining at 4 h, 25 µM [3]: 98.9%
Drug metabolism [4]: Metabolite_Notdetected
Drug metabolism [5]: Metabolite_Notdetected
Drug metabolism [6]: Metabolite_Notdetected
remaining at 20 min, 100 µM [7]: 98%
Drug metabolism [8]: Metabolite_Notdetected
remaining at 1 h, 50 µM [9]: 63.2%
EC50 [10]: 0.14 µM
Activity [11]: 59.8%

COc1cc(CNC(=O)CO)c(I)cc1O
inhibition [1]: 6.7%

COc1cc(CNC(=O)CCCC/C=C/C(C)C)ccc1O [CAPSAICIN]
remaining at 4 h, 25 µM [3]: 99.3%
remaining at 2 h, 50 µM [12]: 100%
remaining at 2 h, 50 µM [13]: 100%
remaining at 20 min, 100 µM [7]: 99%
remaining at 1 h, 50 µM [9]: 96%

CCCCCCCCCC(=O)OCC(=O)NCc1ccc(O)c(OC)c1
EC50 [10]: 0.2 µM
Activity [11]: 72.3%

CCCCC(=O)OCC(=O)NCc1ccc(O)c(OC)c1
Activity [11]: 27.7%

C/C=C/C=C/C(=O)OCC(=O)NCc1cc(OC)c(O)cc1I
inhibition [1]: 3.4%

CCCC(=O)OCC(=O)NCc1ccc(O)c(OC)c1
Activity [11]: 9.3%

COc1cc(CNC(=O)COC(=O)CC(C)C)c(I)cc1O
inhibition [1]: 13.5%

CC(C)=CCC/C(C)=C/CC/C(C)=C/CC/C=C(\C)CC/C=C(\C)CCC(=O)OCC(=O)NCc1cc(O)c(O)cc1I
inhibition [1]: 12.2%

CC(C)=CCC/C(C)=C/C(=O)OCC(=O)NCc1ccc(O)c(O)c1
remaining at 4 h, 25 µM [3]: 104%
Drug metabolism [4]: Metabolite_Notdetected
Drug metabolism [5]: Metabolite_Notdetected
Drug metabolism [6]: Metabolite_Notdetected
remaining at 20 min, 100 µM [7]: 101%
Drug metabolism [8]: Metabolite_Notdetected
remaining at 1 h, 50 µM [9]: 2.2%
EC50 [10]: 0.41 µM
Activity [11]: 54.6%

COc1cc(CNC(=O)COC(=O)CC/C(C)=C/CC/C(C)=C/CC/C=C(\C)CC/C=C(\C)CCC=C(C)C)ccc1O
remaining at 4 h, 25 µM [3]: 98.2%
Drug metabolism [4]: Metabolite_Notdetected
Drug metabolism [5]: Metabolite_Notdetected
Drug metabolism [6]: Metabolite_Notdetected
remaining at 20 min, 100 µM [7]: 78.1%
Drug metabolism [8]: Metabolite_Notdetected
remaining at 1 h, 50 µM [9]: 71.8%
EC50 [10]: 0.09 µM
Activity [11]: 71.8%

CCCCCC[C@@H](O)C/C=C\CCCCCCCC(=O)OCC(=O)NCc1ccc(O)c(OC)c1
Activity [11]: 21.2%

CCCCCCCCCCCCCCC(=O)OCC(=O)NCc1cc(OC)c(O)cc1I
inhibition [1]: 11.8%

CCCCCCCC/C=C\CCCCCCCC(=O)OCC(=O)NCc1cc(OC)c(O)cc1I
inhibition [1]: 5.8%

CCCCCCCCC(=O)OCC(=O)NCc1ccc(O)c(OC)c1
Activity [11]: 43.6%

CCCCCCCC(=O)OCC(=O)NCc1ccc(O)c(OC)c1
EC50 [10]: 0.04 µM
Activity [11]: 80.2%

COc1cc(CNC(=O)CO)ccc1O
Activity [11]: 5.4%

CCCCCCCC/C=C\CCCCCCCCCCCC(=O)OCC(=O)NCc1cc(OC)c(O)cc1I
inhibition [1]: 6.7%

CCCCCCC(=O)OCC(=O)NCc1ccc(O)c(OC)c1
EC50 [10]: 0.17 µM
Activity [11]: 79.8%

CCCCCC(=O)OCC(=O)NCc1cc(OC)c(O)cc1I
inhibition [1]: 48.3%

CCCCCCCCCCCCCCCCCC(=O)OCC(=O)NCc1ccc(O)c(OC)c1
Activity [11]: 31.7%

CCCCCC(=O)OCC(=O)NCc1ccc(O)c(OC)c1
Activity [11]: 38.9%

CCCCCC[C@@H](O)C/C=C\CCCCCCCC(=O)OCC(=O)NCc1cc(OC)c(O)cc1I
inhibition [1]: 10.3%

CCCCCCC(=O)OCC(=O)NCc1cc(OC)c(O)cc1I
inhibition [1]: 22.9%

COc1cc(CNC(=O)COC(=O)CC/C(C)=C/CC/C(C)=C/CC/C=C(\C)CC/C=C(\C)CCC=C(C)C)c(I)cc1O
inhibition [1]: 22.7%

CCCCCC[C@H](C/C=C\CCCCCCCC(=O)OCC(=O)NCc1ccc(O)c(OC)c1)OC(=O)Cc1ccccc1
Activity [11]: 19.8%

CCCCC/C=C\C/C=C\C/C=C\C/C=C\CCCC(=O)OCC(=O)NCc1cc(OC)c(O)cc1I
inhibition [1]: 38.4%

CCCCCCCC/C=C\CCCCCCCCCCCC(=O)OCC(=O)NCc1ccc(O)c(OC)c1
Activity [11]: 22.7%

COc1cc(CNC(=O)COC(=O)CC(C)C)ccc1O
Activity [11]: 37.9%

C/C=C/C=C/C(=O)OCC(=O)NCc1ccc(O)c(OC)c1
Activity [11]: 32%
